Patent US20240252689A1, “POLY-ADP RIBOSE (PAR) TRACKER OPTIMIZED SPLIT-PROTEIN REASSEMBLY PAR DETECTION REAGENTS” (THE BOARD OF REGENTS OF THE UNIVERSITY OF TEXAS SYSTEM, priority 2021, published 2024)

Assays:
PARP-1 activation = assay: Live-cell luminescence assay with PAR-T NanoLuc, UV-induced PARP-1 activation in MDA-MB-231-Luc cells; format: cell-based, human; details: for time-dependent, UV-mediated increase in PAR-T NanoLuc signal (PARP-1 activation): time course after UV radiation, 20 μM for 2 hr prior to UV
Description: Each point in the graph represents the mean±SEM of the relative levels of luminescence from PAR-T NanoLuc normalized to full Nano luciferase (n=3).
FIG. 11B provides quantitative analysis of Western blot analysis and bioluminescence imaging (shown in FIG. 4B) of 231-PAR-T NanoLuc cells treated with 20 μM Niraparib or 20 μM PARG inhibitor for 2 hr prior to UV radiation. Each bar in the graph represents the mean±SEM of the relative intensities (n=3, one-way ANOVA, *p<0.05, **p<0.001, and ***p<0.0001; ns=not significant).
(§1) Cells were treated with various inhibitors as described herein. For inhibition of nuclear PARPs, cells were treated with PJ-34 ([…]; Enzo, ALX-270) or Olaparib (20 µM; MedChem Express, HY-10162) for 2 hours. For inhibition of PARG, cells were treated with PDD 00017273 (20 µM; MedChem Express, HY-108360) for 2 hours. For UV-induced DNA damage, the cells were harvested 15 minutes after treatment with 50 mJ/cm2 UV irradiation.
DNA damaging agents such as UV irradiation and y irradiation activate PARP-1 and cause PARylation of itself and other DNA damage repair proteins that are recruited to the damage sites. […] MDA-MB-231-Luc cells were subjected to doxycycline-induced expression of PAR-T, and then treated UV radiation. […] In a similar manner, a time course of UV-mediated PARP-1 activation using live cell luminescence assay with the PAR-T NanoLuc sensor was performed. The MDA-MB-231 cells were subjected to Dox-induced expression of PAR-T NanoLuc or intact Nano luciferase and then exposed the cells to UV radiation.
Next, a set of assays was performed to compare the performance of the PAR-T sensors to conventional PAR detection reagents (WWE-Fc and PAR antibody) in a variety of assays. The following assays were compared (1) Western blotting with WWE-Fc versus fluorescence assay with PAR-T ddGFP, which were performed in conjunction with ARH3-mediated degradation of PAR in vitro (FIG. 11A); (2) Western blotting with WWE-Fc versus live-cell luciferase assay using PAR-T NanoLuc, which were performed in conjunction with UV-induced DNA damage in MDA-MB-231 cells (FIG. 11B); (3) enzyme-linked immunosorbent assay (ELISA) with PAR antibody versus fluorescence assay with PAR-T ddGFP, which were performed using immobilized PAR (FIG. 11C); and (4) immunofluorescence with WWE-Fc versus live-cell imaging using PAR-T ddGFP, which were performed using H2O2-mediated PARP-1 activation in 293T cells (FIG. 11D and FIG. 11E).

PARylation [1] = assay: Live cell imaging of 3D cancer spheroids of MCF7 cells expressing PAR-T ddGFP; format: cell-based; details: for distribution of PARylation (PAR) throughout the spheroid: MCF7 3D cancer spheroids
Description: FIGS. 8C and 8D provides representative images (8C) and quantification (8D) of Z-projections of cancer spheroids formed using MCF-7 cells subjected to Dox-induced expression of the PAR-T ddGFP. The spheroids were treated with 20 µM Niraparib and live-cell imaging was performed at the indicated times. (Left) The spheroids were divided into ‘outer’ and ‘core’ sections for quantification as indicated by the white circles. (Right) Enlargement of the indicated areas from the left panels (yellow, core; pink, outer) as indicated.
Cancers are heterogenous tissues with spatial variation in nutrient availability, and stress. Since PARylation is enhanced by stressors such as DNA damage, another experiment tested whether there was any spatial variation in PARylation levels. Live cell imaging was performed in 3D cancer spheroids using MCF7 cells expressing the WWE based PAR-T sensors. […] A time course of Niraparib treatment in 3D cancer spheroids was performed to visualize spatio-temporal changes in PAR levels over time.

PARylation [2] = assay: Recombinant PAR-T sensors incubated with lysates from treated Hela cells; format: cell-based
Description: as §1
Cells were cultured and treated as described above before the preparation of cell extracts. […]
Dimerization-dependent GFP is a genetically encoded sensor that was initially developed to study protein interactions. In this system, a pair of a quenched GFP (ddGFPA) and a non-fluorogenic GFP (ddGFPB) form a heterodimer that can result in improved fluorescence. In this example, a ddGFP-based fluorescence sensor (fluorescent PAR-Trackers or PAR-T) was designed to allow for live cell imaging, with high signal-noise ratio. To achieve this, the various ADPR reader domains (ARBDs) were fused to ddGFP-A/B and purified as recombinant proteins (FIG. 1A, FIG. 1B, FIG. 6A). […] Similarly, degradation of PAR chains by ARH3 was detected in a time (FIG. 1F and FIG. 1G) and dose (FIG. 6H) dependent way. […]

PARylation [3] = assay: PAR-T luminescence in MDA-MB-231-luc xenograft tumors; format: in vivo; details: xenograft tumors in mice
Description: In the next experiment, the utility of luminescent PAR-T sensor to measure the levels of PARylation in vivo was tested. Xenograft tumors were established using the MDA-MB-231-luc cells the expression of PAR-T was induced by doxycycline (FIG. 5A). […] The luminescence from PAR-T was normalized to the firefly luminescence to confidently measure the differences in PARylation, while accounting for the variability in tumor sizes.

PAR accumulation = assay: Time course of PAR-T NanoLuc bioluminescence of breast cancer cells injected into mice; format: in vivo, C57/BL6 mice; details: 24-hr time course post injection
Text: FIGS. 5D to 5E show analysis of a time course of bioluminescence imaging of 231-PAR-T NanoLuc cells transplanted into mice and treated with PARG inhibitor. Bioluminescence imaging (5D) with the region of interest expanded (5E). Each point in the graph in (5F) represents the mean±SEM of the relative levels of luminescence of NanoLuc of PAR-T NanoLuc (n=4).
PAR accumulation in breast cancer cells injected into C57/BL6 mice without establishing xenograft tumors over a 24-hr time course post injection, with or without PARG inhibitor treatment (FIG. 5D, FIG. 5E and FIG. 5F) was measured. PAR accumulation was readily detected in the breast cancer cells injected into the mice in the absence of treatment.

Compound | decrease in PAR-T NanoLuc signal (PARP-1 activation; UV-treated cells pre-treated with compound, versus basal) | decrease in PAR-T NanoLuc signal (PARP-1 activation; basal (-UV) conditions, 20 μM, 2 hr) [%] | time-dependent, UV-mediated increase in PAR-T NanoLuc signal (PARP-1 activation) (PARP-1 activation) | distribution of PARylation (PAR) throughout the spheroid (PARylation [1]) | PAR levels in cells at the core versus outer layer of the spheroid (PARylation [1]; time course, 20 µM Niraparib) | distribution of PARylation (PAR) throughout the spheroid (PARylation [1]; WWE based PAR-T sensors, 20 uM Niraparib) | PAR-T luminescence (PARP-1 activation; UV radiation of treated cells) | fluorescence of recombinant PAR-T sensors with cell lysates (PARylation [2]; lysates from cells treated with both H2O2 and PARG inhibitor) | fluorescence of recombinant PAR-T sensors with cell lysates (PARylation [2]; lysates from treated Hela cells) | PARylation detected by PAR-T luminescence normalized to firefly luminescence (PARylation [3]) | luminescence from PAR-T NanoLuc (PAR accumulation)
NC(=O)c1cccc2cn(-c3ccc([C@@H]4CCCNC4)cc3)nc12 [Niraparib] | greater | 50 | but not in Niraparib-treated cells | inhibited | relatively resistant | – | – | – | – | – | –
O=C(c1cc(Cc2n[nH]c(=O)c3ccccc23)ccc1F)N1CCN(C(=O)C2CC2)CC1 [olaparib, Olaparib] | – | – | – | – | – | inhibited | – | – | – | – | –
PDD 00017273 [PARG inhibitor] | – | – | more spontaneous | – | – | – | enhanced PAR-T luminescence | pronounced increase in fluorescence | increase in fluorescence | increase in PARylation | increased significantly by 6 hr and then diminished by 24 hr
